Test results reported in patent US12344606B2, “Next-generation modulators of stimulator of interferon genes (STING)” (RYVU THERAPEUTICS S.A., priority 2019, dated 2025).

Experiments:
human STING = human STING (Homo sapiens, UniProt Q86WV6); assay: Fluorescence Thermal Shift assay (hSTING FTS binding assay); conditions: STING 0.1 mg/ml, 20 min preincubation, SyproOrange
Method: Compounds of the present invention were tested for binding to human STING in Fluorescence Thermal Shift assay. STING was preincubated with the compounds for 20 minutes in 50 mM Hepes, 150 mM NaCl, pH 7.5 in 16 μl volume, following by adding 4 μl of SyproOrange dye dilution (ThermoFisher, cat no. S-6651). Final STING concentration was 0.1 mg/ml. Thermal unfolding was performed in Real-Time PCR QuantStudio 6 Flex System (Applied Biosystems), from 25 to 99° C., with continuous ramp mode and ramp rate 0.033° C./s. The data were analyzed using Protein Thermal Shift Software (ThermoFisher).

[1] = system: interferon regulatory factor (IRF) pathway in THP-1 dual cells; assay: THP-1 Dual reporter assay, IRF pathway (luciferase); assay type: cell-based; conditions: Homo sapiens, THP1-Dual; 18 h stimulation, luminescence
Method: (§1) Compounds of the present invention were tested for their activity using THP-1 dual cells (Invivogen, cat no. thpd-nfis) allowing for simultaneous study of NF-κB pathway and the interferon regulatory factor (IRF) pathway. THP-1 dual cells contain luciferase reporter gene under the control of an ISG54 (interferon-stimulated gene) minimal promoter in conjunction with five interferon-stimulated response elements and a secreted embryonic alkaline phosphatase reporter gene under the control an IFN (interferon)-β minimal promoter fused to five copies of the NF-κB consensus transcriptional response element with three copies of the c-Rel binding site. Following 18 h of stimulation with STING agonist, medium was collected and transferred onto fresh cell culture plate. To verify activity of the IRF pathway, luminescence activity was measured with standard laboratory plate reader immediately after addition 10 μl of the medium to 50 μl (or 40 μl) of luminescence reagent (Invivogen, cat. No. rep-qlc2). To verify activity of NF-κB pathway, 20 μl (or 10 μl) of the medium was mixed with 80 μl of a detection medium (Invivogen, cat. No. rep-qb2) and incubated for 2 hours (or 1 hour) at 37° C. in a humidified atmosphere containing 5% CO2. Next, absorbance at 630 nm (or 655 nm) was recorded using standard laboratory plate reader.

[2] = system: NF-κB pathway in THP-1 dual cells; assay: THP-1 Dual reporter assay, NF-κB pathway (SEAP); assay type: cell-based; conditions: Homo sapiens, THP1-Dual; 18 h stimulation, absorbance; read-out: THP1 Dual EC50 (μM) NFkB
Method: as §1

human STING, sequence (Q86WV6 whole entry H232R): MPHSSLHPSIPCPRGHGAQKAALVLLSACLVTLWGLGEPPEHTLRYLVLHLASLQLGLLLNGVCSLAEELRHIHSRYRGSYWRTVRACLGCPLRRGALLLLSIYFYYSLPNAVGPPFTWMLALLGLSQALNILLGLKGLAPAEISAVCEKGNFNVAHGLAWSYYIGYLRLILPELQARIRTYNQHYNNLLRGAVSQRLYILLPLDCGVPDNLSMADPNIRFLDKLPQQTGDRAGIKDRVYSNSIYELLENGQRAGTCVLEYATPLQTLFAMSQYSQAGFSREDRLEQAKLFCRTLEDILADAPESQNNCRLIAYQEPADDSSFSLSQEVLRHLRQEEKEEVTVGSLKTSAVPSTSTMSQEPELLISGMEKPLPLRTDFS

Row | SMILES | hSTING FTS binding assay (ΔT C.°) (human STING) | EC50 [1] | EC50 [2]
1 | Cc1cc(CN(Cc2cn(C)c3ccccc3c2=O)[C@H]2CCCN(c3ccc([N+](=O)[O-])nc3)C2)ccn1 [Example 14, 1-methyl-3-({[(2-methylpyridin-4-yl)methyl][(3S)-1-(6-nitropyridin-3-yl)piperidin-3-yl]amino}methyl)-1,4-dihydroquinolin-4-one] | + (ΔTm<10° C.) | 1 to 10 µM | ≥ 10 µM
2 | Cc1cc(CN(Cc2cn(C)c3ccccc3c2=O)[C@H]2C[C@@H](C)CN(c3cccnc3)C2)ccn1 [Example 27, 1-methyl-3-({[(3S,5R)-5-methyl-1-(pyridin-3-yl)piperidin-3-yl][(2-methylpyridin-4-yl)methyl]amino}methyl)-1,4-dihydroquinolin-4-one] | + (ΔTm<10° C.) | ≥ 10 µM | ≥ 10 µM
3 | Cc1ccc(N2CCC[C@H](N(Cc3ccnc(C)c3)Cc3cn(C4CC4)c4cc(N5CCNCC5)c(F)cc4c3=O)C2)cn1 [Example 47, 1-cyclopropyl-6-fluoro-3-({[(3S)-1-(6-methylpyridin-3-yl)piperidin-3-yl][(2-methylpyridin-4-yl)methyl]amino}methyl)-7-(piperazin-1-yl)-1,4-dihydroquinolin-4-one] | ++ (ΔTm>10° C.) | ≤ 1 µM | ≤ 1 µM
4 | Cc1cc(CN(Cc2cn(C)c3ccccc3c2=O)[C@H]2CCCN(c3ccncc3Br)C2)ccn1 [Example 15, 3-({[(3S)-1-(3-bromopyridin-4-yl)piperidin-3-yl][(2-methylpyridin-4-yl)methyl]amino}methyl)-1-methyl-1,4-dihydroquinolin-4-one] | + (ΔTm<10° C.) | 1 to 10 µM | 1 to 10 µM
5 | Cc1ccc(N2CCC[C@H](N(Cc3ccnc(C)c3)Cc3cn(C4CC4)c4cc(N5CCNC6(CC6)C5)c(F)cc4c3=O)C2)cn1 [Example 52, 1-cyclopropyl-7-{4,7-diazaspiro[2.5]octan-7-yl}-6-fluoro-3-({[(3S)-1-(6-methylpyridin-3-yl)piperidin-3-yl][(2-methylpyridin-4-yl)methyl]amino}methyl)-1,4-dihydroquinolin-4-one] | ++ (ΔTm>10° C.) | ≤ 1 µM | ≤ 1 µM
6 | Cc1cc(CN(Cc2cn(C3CC3)c3cc(N4CCN(C)CC4)c(F)cc3c2=O)[C@H]2CCCN(c3cccnc3)C2)ccn1 [Example 10, 1-cyclopropyl-6-fluoro-7-(4-methylpiperazin-1-yl)-3-({[(2-methylpyridin-4-yl)methyl][(3S)-1-(pyridin-3-yl)piperidin-3-yl]amino}methyl)-1,4-dihydroquinolin-4-one] | ++ (ΔTm>10° C.) | ≤ 1 µM | ≤ 1 µM
7 | Cc1cc(CN(Cc2cn(C)c3ccccc3c2=O)[C@H]2CCCN(c3ccn(C)c(=O)c3)C2)ccn1 [Example 41, 1-methyl-3-({[(3S)-1-(1-methyl-2-oxo-1,2-dihydropyridin-4-yl)piperidin-3-yl][(2-methylpyridin-4-yl)methyl]amino}methyl)-1,4-dihydroquinolin-4-one] | + (ΔTm<10° C.) | ≥ 10 µM | ≥ 10 µM
8 | Cc1cc(CN(Cc2cn(C)c3ccccc3c2=O)C2CCCN(c3cccnc3)C2)ccn1 (stereo not drawn) [Example 2, 1-methyl-3-({[(2-methylpyridin-4-yl)methyl][1-(pyridin-3-yl)piperidin-3-yl]amino}methyl)-1,4-dihydroquinolin-4-one] | ++ (ΔTm>10° C.) | ≤ 1 µM | ≤ 1 µM
9 | Cc1cc(CN(Cc2cn(C3CC3)c3cc(F)c(F)cc3c2=O)[C@H]2CCCN(c3cccnc3)C2)ccn1 [Example 12, 1-cyclopropyl-6,7-difluoro-3-({[(2-methylpyridin-4-yl)methyl][(3S)-1-(pyridin-3-yl)piperidin-3-yl]amino}methyl)-1,4-dihydroquinolin-4-one] | ++ (ΔTm>10° C.) | ≤ 1 µM | ≤ 1 µM
10 | COc1cc(CN(Cc2c[nH]c3ccccc3c2=O)[C@H]2CCCN(c3cccnc3)C2)ccn1 [Example 6, 3-({[(2-methoxypyridin-4-yl)methyl][(3S)-1-(pyridin-3-yl)piperidin-3-yl]amino}methyl)-1,4-dihydroquinolin-4-one] | ++ (ΔTm>10° C.) | ≤ 1 µM | ≤ 1 µM
11 | Cc1ccc(N2CCC[C@H](N(Cc3ccnc(C)c3)Cc3cn(C4CC4)c4cc(Cl)c(F)cc4c3=O)C2)cn1 [Example 40, 7-chloro-1-cyclopropyl-6-fluoro-3-({[(3S)-1-(6-methylpyridin-3-yl)piperidin-3-yl][(2-methylpyridin-4-yl)methyl]amino}methyl)-1,4-dihydroquinolin-4-one] | ++ (ΔTm>10° C.) | ≤ 1 µM | ≤ 1 µM
12 | Cc1ccc(N2CCC[C@H](N(Cc3ccnc(C)c3)Cc3c[nH]c4ccccc4c3=O)C2)cn1 [Example 58, 3-({[(3S)-1-(6-methylpyridin-3-yl)piperidin-3-yl][(2-methylpyridin-4-yl)methyl]amino}methyl)-1,4-dihydroquinolin-4-one] | ++ (ΔTm>10° C.) | ≤ 1 µM | ≤ 1 µM
13 | Cc1cc(CN(Cc2cn(C)c3ccccc3c2=O)[C@H]2CCCN(c3ncc(Br)cn3)C2)ccn1 [Example 32, 3-({[(3S)-1-(5-bromopyrimidin-2-yl)piperidin-3-yl][(2-methylpyridin-4-yl)methyl]amino}methyl)-1-methyl-1,4-dihydroquinolin-4-one] | + (ΔTm<10° C.) | 1 to 10 µM | 1 to 10 µM
14 | Cc1cc(CN(Cc2cn(C)c3ccccc3c2=O)[C@H]2CCCN(c3cccnc3)C2)cc(C)n1 [Example 38, 3-({[(2,6-dimethylpyridin-4-yl)methyl][(3S)-1-(pyridine-3-yl)piperidin-3-yl]amino}methyl)-1-methyl-1,4-dihydroquinolin-4-one] | + (ΔTm<10° C.) | ≥ 10 µM | ≥ 10 µM
15 | COc1nc2c(cc1F)c(=O)c(CN(Cc1ccnc(C)c1)[C@H]1CCCN(c3ccc(C)nc3)C1)cn2C1CC1 [Example 44, 1-cyclopropyl-6-fluoro-7-methoxy-3-({[(3S)-1-(6-methylpyridin-3-yl)piperidin-3-yl][(2-methylpyridin-4-yl)methyl]amino}methyl)-1,4-dihydro-1,8-naphthyridin-4-one] | ++ (ΔTm>10° C.) | ≤ 1 µM | ≤ 1 µM
16 | COc1cc(N2CCC[C@H](N(Cc3ccnc(C)c3)Cc3cn(C)c4ccccc4c3=O)C2)ccn1 [Example 20, 3-({[(3S)-1-(2-methoxypyridin-4-yl)piperidin-3-yl][(2-methylpyridin-4-yl)methyl]amino}methyl)-1-methyl-1,4-dihydroquinolin-4-one] | + (ΔTm<10° C.) | ≥ 10 µM | ≥ 10 µM
17 | Cc1ccc(N2CCC[C@H](N(Cc3ccnc(C)c3)Cc3cn(C4CC4)c4[nH]c(=O)c(F)cc4c3=O)C2)cn1 [Example 43, 1-cyclopropyl-6-fluoro-7-hydroxy-3-({[(3S)-1-(6-methylpyridin-3-yl)piperidin-3-yl][(2-methylpyridin-4-yl)methyl]amino}methyl)-1,4-dihydro-1,8-naphthyridin-4-one] | ++ (ΔTm>10° C.) | ≥ 10 µM | ≥ 10 µM
18 | COc1ncc(N2CCC[C@H](N(Cc3ccnc(C)c3)Cc3cn(C)c4ccccc4c3=O)C2)cn1 [Example 8, 3-({[(3S)-1-(2-methoxypyrimidin-5-yl)piperidin-3-yl][(2-methylpyridin-4-yl)methyl]amino}methyl)-1-methyl-1,4-dihydroquinolin-4-one] | + (ΔTm<10° C.) | ≥ 10 µM | ≥ 10 µM
19 | Cc1cc(CN(Cc2cn(C)c3ccccc3c2=O)[C@H]2CCCN(c3cccnc3[N+](=O)[O-])C2)ccn1 [Example 36, 1-methyl-3-({[(2-methylpyridin-4-yl)methyl][(3S)-1-(2-nitropyridin-3-yl)piperidin-3-yl]amino}methyl)-1,4-dihydroquinolin-4-one] | + (ΔTm<10° C.) | ≥ 10 µM | ≥ 10 µM
20 | COc1cc(CN(Cc2cn(C3CC3)c3cc(F)c(F)cc3c2=O)[C@H]2CCCN(c3cccnc3)C2)ccn1 [Example 11, 1-cyclopropyl-6,7-difluoro-3-({[(2-methoxypyridin-4-yl)methyl][(3S)-1-(pyridin-3-yl)piperidin-3-yl]amino}methyl)-1,4-dihydroquinolin-4-one] | ++ (ΔTm>10° C.) | ≤ 1 µM | ≤ 1 µM
